For five compounds, MIC and IC50 results are on record in ChEMBL document CHEMBL1156380, “Inhibition of Mycobacterium tuberculosis growth by saringosterol from Lessonia nigrescens” (J Nat Prod, 2001).

Test [1] relates to Mycobacterium tuberculosis. Kind of test: Antitubercular activity against Mycobacterium tuberculosis H37Rv ATCC 27294 by BACTEC 460 radiometric assay. The class given is functional.
In another test the test system is Vero. Kind of test: Cytotoxicity against african green monkey Vero cells by celltiter 96 aqueous nonradioactive assay. The class given is cell-based. The following applies: Chlorocebus sabaeus.

In brackets after ≈: the same amount, converted by molar mass. Activity calls are given as the source filed them. No cut-off for these calls is given here. Where only a bound is given, the exact number is not on record here.

What is called MIC is the lowest concentration found to suppress growth. In turn, `C=C[C@](O)(CC[C@@H](C)[C@H]1CC[C@H]2[C@@H]3CC=C4C[C@@H](O)CC[C@]4(C)[C@H]3CC[C@]12C)C(C)C` yielded a minimum inhibitory concentration (MIC) in test [1] of 1 µg/mL (≈ 2.33 µM). Turning to `C=C[C@@](O)(CC[C@@H](C)[C@H]1CC[C@H]2[C@@H]3CC=C4C[C@@H](O)CC[C@]4(C)[C@H]3CC[C@]12C)C(C)C`, in test [1], the MIC was 0.125 µg/mL (≈ 0.292 µM).

As for `C/C=C(\CC[C@@H](C)[C@H]1CC[C@H]2[C@@H]3CC=C4C[C@@H](O)CC[C@]4(C)[C@H]3CC[C@]12C)C(C)C`, the MIC result in test [1] is “inactive”.

Compound `CO[C@H]1/C=C/O[C@@]2(C)Oc3c(C)c(O)c4c(O)c(c(/C=N/N5CCN(C)CC5)c(O)c4c3C2=O)NC(=O)/C(C)=C\C=C\[C@H](C)[C@H](O)[C@@H](C)[C@@H](O)[C@@H](C)[C@H](OC(C)=O)[C@@H]1C` [RIFAMPIN] gave an MIC in test [1] of 0.25 µg/mL (≈ 0.304 µM).

One may read the IC50 as the concentration that gives 50% inhibition. For the compound `C=CC(O)(CC[C@@H](C)[C@H]1CC[C@H]2[C@@H]3CC=C4C[C@@H](O)CC[C@]4(C)[C@H]3CC[C@]12C)C(C)C` (stereo partly specified) [SARINGOSTEROL], the lowest concentration to inhibit growth in test [1] (MIC) was 0.25 µg/mL (≈ 0.583 µM). The IC50 in the test with Vero is over 128 µg/mL.
